Experimental data as given in US7851508B2, “Natural product derivatives with antimalarial activity” (Radix Pharmaceuticals, Inc., priority 2008, dated 2010).
In brackets after ≈: the same amount, converted by molar mass. Where two headings read alike, the source gives them in different places.

Tests used:
[1] = tested on: P. falciparum malaria parasite clone D6 (chloroquine sensitive); test: In vitro anti-malarial activity, [3H]hypoxanthine uptake, D6 clone; assay type: cell-based, Plasmodium falciparum
Description: (§1) For in vitro toxicological studies, the following cell line was chosen: human adult liver epithelial cells (THLE-3). THLE-3 cells express phenotypic characteristics of normal adult liver epithelial cells and constitute a valuable model for pharmacotoxicological studies.
(§2) Two P. falciparum malaria parasite clones, W2 and D6, from Malaria Research and Reference Reagent Resource Center (MR4), were utilized in susceptibility testing. […] Test compounds were initially dissolved in DMSO and diluted 400 fold in RPMI 1640 culture medium supplemented with 25 mM Hepes, 32 mM NaHCO3 and 10% Albumax I (Gibco, N.Y.). These solutions were subsequently serially diluted two-fold with a Beckman Biomek® 1000 Robot (Fullerton, Calif.) over 11 different concentrations. The parasites were exposed to serial dilutions of each compound for 48 hrs and incubated at 37° C. with 5% O2, 5% CO2 and 90% N2 prior to the addition of [^3H]hypoxanthine. After a further incubation of 18 hrs, parasite DNA was harvested from each microtiter well using Packard Filtermate™ 196 Harvester (Meriden, Conn.) onto glass filters. Uptake of [^3H]hypoxanthine was measured with a Packard TopCount Liquid Scintillation Counter (Packard Instrument Co.).

[2] = tested on: P. falciparum malaria parasite clone W2 (chloroquine resistant); test: In vitro anti-malarial activity, [3H]hypoxanthine uptake, W2 clone; assay type: cell-based, Plasmodium falciparum
Description: as §1, §2

[3] = tested on: human adult liver epithelial cells (THLE-3); test: In vitro toxicity evaluation, Sulforhodamine B; assay type: cell-based; conditions: for IC50: Homo sapiens, read-out: IC50 THLE-3; for Selectivity, IC50 (THLE-3)/IC50 (D6): ratio THLE-3 vs D6
Experimental: as §1
Human adult liver epithelial cells (THLE-3) was maintained in tissue culture flasks in Waymouth's medium (Gibco, N.Y.) supplemented with 10% fetal bovine serum. Toxicity tests were performed in 96-well tissue culture plates using the protein-binding dye Sulforhodamine B. Test compounds were serially diluted and added to empty wells of the 96-well plate. THLE-3 cells in their culture medium were immediately seeded into the wells. Solvent blanks (no compound) were run in each test. After 72 hours under culture conditions cells were fixed to the plate by layering 50% TCA (4° C.) over the growth media in each well to produce a final TCA concentration of 10%. After incubating for one hour at 4° C., cultures were washed five times with tap water and left air-dried. Wells were stained for 30 min. with 0.4% (w/v) SRB in 1% acetic acid and washed four times with 1% acetic acid. Cultures were left air-dried and bound dye was solubilized with 10 mM Tris base (pH 10.5) for 15 min. on a gyratory shaker at room temperature. A Spectra MAX Plus Microtiter Plate Reader (Molecular Devices, Menlo Park, Calif.) was used to measure the optical density at wavelengths of 490-530 nm.

[4] = tested on: P. berghei in mice; assay type: in vivo; conditions: for toxicity in mice: highest dose tested; for toxicity in mice / blood schizonticidal activity, in words: oral
Experimental: Drugs were mixed in 0.5% hydroxycellulose 0.1% Tween 80 and administered orally b.i.d. on days 3, 4 and 5 postinfection. CD-1 male or female mice, 5 weeks of age, were infected with 5×10^4 parasitized erythrocytes of Plasmodium berghei KBG-173 mm strain. Blood films were taken on day +6 and weekly thereafter until day +60. Parasitemias were calculated and SD90 value (dose suppressing 90% of the parasites in treated groups compared with the infected non-treated controls) on day +6 postinfection. Mortality data was tabulated for 60 days at which time all mice surviving that were blood film negative were considered cured.
[…] The activity of these compounds were compared with the untreated control: In untreated controls, death occurs within 8-9 days. Compounds which are effective against Plasmodium berghei infection increase the mean survival time of the infected animals when compared with the untreated controls. Mice that survive after thirty days and are free of parasites in blood are considered cured.
Efficacy of the drug is determined by the number of cures at the end of a 30 day period and the increase in mean survival time over the control (ΔMST). The effect of the test drugs also could be determined by the reduction of the parasitemia (percentage of the red blood cells detected with the parasites) over the untreated control on day 6, one day after the treatment is completed. Both these methods yield virtually identical results. If the dose of test compounds are inadequate, after initial clearance, residual parasites will multiply and relapses will occur within thirty days.

[5] = tested on: P. berghei in mice; test: Suppressive blood schizontocidal test in mice, subcutaneous single dose; assay type: in vivo, Plasmodium berghei; conditions: for Mice surviving 60 days/Mice infected and treated: 72 h after infection
Experimental: Mice were treated with a single dose of the compound administered subcutaneously 72 h after infection. Number of cures is the number of mice surviving, out of five, 60 days postinfection.

[6] = tested on: Plasmodium berghei KBG-173 in mice; test: Prophylactic test in mice, oral; assay type: in vivo; conditions: for Mice infected and treated/Mice surviving day 60: oral; for protection from malaria (oral prophylactic activity): single dose of 0.5 mg/kg within 2 days pre-infection through 2 days post-infection
Experimental: Compounds were tested for oral prophylactic activity.
Drugs were mixed in 0.5% hydroxycellulose 0.1% Tween 80 and administered orally b.i.d. either on day 5, 4, 3, 2, or 1 prior to the infection or 1 or 2 days postinfection. CD-I male or female mice, 5 weeks of age, were infected with 5×10^4 parasitized erythrocytes of Plasmodium berghei KBG-173 mm strain. Blood films were taken on day +6 and weekly thereafter until day+30. […]

[7] = Plasmodium falciparum, D6; read-out: IC50 D6 Strain
[8] = Plasmodium falciparum, W2; read-out: IC50 W2 Strain
[9] = THLE3, THLE-3 cells, 72 hours, toxicity
[10] = oral dose 0.25 mg/kg/day (total dose 0.75 mg/kg)
[11] = oral dose 1.0 mg/kg/day (total dose 3.0 mg/kg)
[12] = oral dose 4.0 mg/kg/day (total dose 12 mg/kg)
[13] = oral dose 16 mg/kg/day (total dose 48 mg/kg)
[14] = oral dose 64 mg/kg/day (total dose 192 mg/kg)
[15] = subcutaneous single dose 1 mg/kg
[16] = subcutaneous single dose 2 mg/kg
[17] = subcutaneous single dose 4 mg/kg
[18] = subcutaneous single dose 8 mg/kg
[19] = subcutaneous single dose 16 mg/kg
[20] = subcutaneous single dose 32 mg/kg
[21] = subcutaneous single dose 64 mg/kg
[22] = subcutaneous single dose 128 mg/kg
[23] = day of treatment 1, dose 0.5 mg/kg
[24] = day of treatment 1, dose 2 mg/kg
[25] = day of treatment 1, dose 8 mg/kg
[26] = day of treatment 1, dose 32 mg/kg
[27] = day of treatment 2, dose 0.5 mg/kg
[28] = day of treatment 2, dose 2 mg/kg
[29] = day of treatment 2, dose 8 mg/kg
[30] = day of treatment 2, dose 32 mg/kg
[31] = day of treatment −1, dose 0.5 mg/kg
[32] = day of treatment −1, dose 2 mg/kg
[33] = day of treatment −1, dose 8 mg/kg
[34] = day of treatment −1, dose 32 mg/kg
[35] = day of treatment −2, dose 0.5 mg/kg
[36] = day of treatment −2, dose 2 mg/kg
[37] = day of treatment −2, dose 8 mg/kg
[38] = day of treatment −2, dose 32 mg/kg

OC(c1cc(C(F)(F)F)nc2c(C(F)(F)F)cccc12)C1CCCCN1 (stereo not shown) [Mefloquine, reference compound]
IC50 [1, 7]: 3.4 ng/mL (≈ 0.00899 µM) | IC50 [2, 8]: 5.6 ng/mL (≈ 0.0148 µM) | IC50 [3, 9]: 2700 ng/mL (≈ 7.14 µM) | Selectivity, IC50 (THLE-3)/IC50 (D6) [3]: 794

CCN(CC)CCCC(C)Nc1ccnc2cc(Cl)ccc12 (stereo not shown) [Chloroquine, reference compound]
IC50 ([1]; Plasmodium falciparum, D6, read-out: IC50 D6 Strain): 6.3 ng/mL (≈ 0.0197 µM) | IC50 ([2]; Plasmodium falciparum, W2, read-out: IC50 W2 Strain): 108 ng/mL (≈ 0.338 µM) | IC50 ([3]; THLE3, 72 h): 2920 ng/mL (≈ 9.13 µM) | Selectivity, IC50 (THLE-3)/IC50 (D6) [3]: 463 | Mice surviving 60 days/Mice infected and treated [4, 10]: 0/7 | Mice surviving 60 days/Mice infected and treated [4, 11]: 0/7 | Mice surviving 60 days/Mice infected and treated [4, 12]: 2/7 | Mice surviving 60 days/Mice infected and treated [4, 13]: 4/7 | Mice surviving 60 days/Mice infected and treated [4, 14]: 0/7

C=C[C@@H]1[C@@H](OC)[C@H](OC)[C@@]23CC24c2cc5cc(OC)ccc5nc2C(=O)N[C@H]4CN13 (stereo partly shown) [Formula I]
IC50 [1, 7]: 0.47 ng/mL | inhibitory activity against chloroquine sensitive malaria strain (D-6), in words ([1]; in vitro): equally potent inhibitory activity | IC50 [2, 8]: 0.43 ng/mL | inhibitory activity against chloroquine resistant malaria strain (W-2), in words ([2]; in vitro): equally potent inhibitory activity | IC50 [3, 9]: 19400 ng/mL | Selectivity, IC50 (THLE-3)/IC50 (D6) [3]: 4.1 × 10^4 | toxicity in mice [4]: no mice showed toxicity | blood schizonticidal activity, in words [4]: very active | Mice surviving 60 days/Mice infected and treated [4, 10]: 7/7 | Mice surviving 60 days/Mice infected and treated [4, 11]: 7/7 | Mice surviving 60 days/Mice infected and treated [4, 12]: 7/7 | Mice surviving 60 days/Mice infected and treated [4, 13]: 7/7 | Mice surviving 60 days/Mice infected and treated [4, 14]: 7/7 | activity by the subcutaneous route of administration, in words [5]: excellent activity | Mice surviving 60 days/Mice infected and treated [5, 15]: 4/5 | Mice surviving 60 days/Mice infected and treated [5, 16]: 5/5 | Mice surviving 60 days/Mice infected and treated [5, 17]: 5/5 | Mice surviving 60 days/Mice infected and treated [5, 18]: 5/5 | Mice surviving 60 days/Mice infected and treated [5, 19]: 5/5 | Mice surviving 60 days/Mice infected and treated [5, 20]: 5/5 | Mice surviving 60 days/Mice infected and treated [5, 21]: 5/5 | Mice surviving 60 days/Mice infected and treated [5, 22]: 5/5 | Mice infected and treated/Mice surviving day 60 [6, 23]: 5/5 | Mice infected and treated/Mice surviving day 60 [6, 24]: 5/5 | Mice infected and treated/Mice surviving day 60 [6, 25]: 5/5 | Mice infected and treated/Mice surviving day 60 [6, 26]: 5/5 | Mice infected and treated/Mice surviving day 60 [6, 27]: 5/5 | Mice infected and treated/Mice surviving day 60 [6, 28]: 5/5 | Mice infected and treated/Mice surviving day 60 [6, 29]: 5/5 | Mice infected and treated/Mice surviving day 60 [6, 30]: 5/5 | Mice infected and treated/Mice surviving day 60 [6, 31]: 5/5 | Mice infected and treated/Mice surviving day 60 [6, 32]: 5/5 | Mice infected and treated/Mice surviving day 60 [6, 33]: 5/5 | Mice infected and treated/Mice surviving day 60 [6, 34]: 5/5 | Mice infected and treated/Mice surviving day 60 [6, 35]: 5/5 | Mice infected and treated/Mice surviving day 60 [6, 36]: 5/5 | Mice infected and treated/Mice surviving day 60 [6, 37]: 5/5 | Mice infected and treated/Mice surviving day 60 [6, 38]: 5/5 | protection from malaria (oral prophylactic activity) [6]: completely protected

C=C[C@@H]1[C@H]2OCOC2[C@@]23CC24c2nc5ccc(OC)cc5cc2C(=O)N[C@H]4CN13 (stereo partly shown) [Formula II]
IC50 [1, 7]: 0.29 ng/mL | inhibitory activity against chloroquine sensitive malaria strain (D-6), in words ([1]; in vitro): equally potent inhibitory activity | IC50 [2, 8]: 0.33 ng/mL | inhibitory activity against chloroquine resistant malaria strain (W-2), in words ([2]; in vitro): equally potent inhibitory activity | IC50 [3, 9]: 18900 ng/mL | Selectivity, IC50 (THLE-3)/IC50 (D6) [3]: 7.0 × 10^4 | toxicity in mice [4]: no mice showed toxicity | blood schizonticidal activity, in words [4]: very active | Mice surviving 60 days/Mice infected and treated [4, 10]: 7/7 | Mice surviving 60 days/Mice infected and treated [4, 11]: 7/7 | Mice surviving 60 days/Mice infected and treated [4, 12]: 7/7 | Mice surviving 60 days/Mice infected and treated [4, 13]: 7/7 | Mice surviving 60 days/Mice infected and treated [4, 14]: 7/7 | activity by the subcutaneous route of administration, in words [5]: excellent activity | Mice surviving 60 days/Mice infected and treated [5, 15]: 4/5 | Mice surviving 60 days/Mice infected and treated [5, 16]: 5/5 | Mice surviving 60 days/Mice infected and treated [5, 17]: 5/5 | Mice surviving 60 days/Mice infected and treated [5, 18]: 5/5 | Mice surviving 60 days/Mice infected and treated [5, 19]: 5/5 | Mice surviving 60 days/Mice infected and treated [5, 20]: 5/5 | Mice surviving 60 days/Mice infected and treated [5, 21]: 5/5 | Mice surviving 60 days/Mice infected and treated [5, 22]: 5/5 | Mice infected and treated/Mice surviving day 60 [6, 23]: 5/5 | Mice infected and treated/Mice surviving day 60 [6, 24]: 5/5 | Mice infected and treated/Mice surviving day 60 [6, 25]: 5/5 | Mice infected and treated/Mice surviving day 60 [6, 26]: 5/5 | Mice infected and treated/Mice surviving day 60 [6, 27]: 5/5 | Mice infected and treated/Mice surviving day 60 [6, 28]: 5/5 | Mice infected and treated/Mice surviving day 60 [6, 29]: 5/5 | Mice infected and treated/Mice surviving day 60 [6, 30]: 5/5 | Mice infected and treated/Mice surviving day 60 [6, 31]: 5/5 | Mice infected and treated/Mice surviving day 60 [6, 32]: 5/5 | Mice infected and treated/Mice surviving day 60 [6, 33]: 5/5 | Mice infected and treated/Mice surviving day 60 [6, 34]: 5/5 | Mice infected and treated/Mice surviving day 60 [6, 35]: 5/5 | Mice infected and treated/Mice surviving day 60 [6, 36]: 5/5 | Mice infected and treated/Mice surviving day 60 [6, 37]: 5/5 | Mice infected and treated/Mice surviving day 60 [6, 38]: 5/5 | protection from malaria (oral prophylactic activity) [6]: completely protected
